Test results taken from patent US20160184274A1, “Methods for inhibiting mesenchymal phenotype after epithelial-to-mesenchymal transition” (Fibrostatin, S.L., priority 2014, published 2016).
“Also recorded” adds a separate entry of the source.

Experiments:
[1] = tested on: mesenchymal A549 spheroids; assay: Intracellular doxorubicin accumulation and viability in spheroids; assay type: cell-based, Human; conditions: FIG. 9
Experimental: FIG. 9. T12 enhances intracellular accumulation of doxorubicin in A549 mesenchymal spheroids. A549 spheroids were subjected to EMT induction with TGF-β and TNF-α during 4 days, and treated with T12 (10 μM) or maintained untreated (Placebo) for the last 2 days. Three hours before spheroid analysis doxorubicin (1 μM) was added. Spheroids were fixed and analyzed by immunofluorescence confocal microscopy with anti-α1α2(IV) antibodies for collagen IV network visualization (grey). Doxorubicin was detected by its own auto-fluorescence. […] Three-dimensional spheroid cultures of A549 cells were obtained using a hanging droplet method (Kelm et al., 2003. Biotechnol. Bioeng. 83: 173-180.; Kumar et al., 2013. PLoS One. 8: e68597). Briefly, cells were grown to approximately 80% confluence on adherent tissue-culture flasks. Then cells were trypsinized, dispersed in DMEM/10% FBS, and counted using an automated cell counter (MOXI® Z, Orflo). The cell suspension was diluted to a 10^6 cells/mL-concentration, and 25 μl of the cell suspension were pipetted onto the underside of a sterile 10-cm tissue culture plate lid. Each lid was loaded with approximately 55 droplets. After loading, the lid was placed onto a tissue culture plate containing 6 mL of sterile PBS (phosphate-buffered saline) and incubated for 48 hours to facilitate spheroid formation. […]

stem A549 cells = conditions: WO/2014/006020; cited from earlier work
A7C11 = assay: Collagen IV expression in A7C11; assay type: cell-based, murine; conditions: data not shown
[2] = tested on: mesenchymal A549 spheroids; assay: Collagen network in mesenchymal spheroids, confocal microscopy; assay type: cell-based, Human
Experimental: FIG. 7. T12 disrupts collagen IV network and reduces A549 mesenchymal spheroids viability. A549 spheroids were subjected to EMT induction with TGF-β and TNF-α during 4 days, and treated with T12 (10 μM) or maintained untreated (Cont) for the last 2 days. In A, spheroids were analyzed by immunofluorescence confocal microscopy with anti-α1α2 (IV) antibodies (COL4, white) and DAPI to visualize the cell nuclei (grey). In B, the culture media of the spheroids in A were used for assessing cell death by measuring LDH activity. […] Represented are Means (±SEM).
Three-dimensional spheroid cultures of A549 cells were obtained using a hanging droplet method (Kelm et al., 2003. Biotechnol. Bioeng. 83: 173-180.; Kumar et al., 2013. PLoS One. 8: e68597). Briefly, cells were grown to approximately 80% confluence on adherent tissue-culture flasks. Then cells were trypsinized, dispersed in DMEM/10% FBS, and counted using an automated cell counter (MOXI® Z, Orflo). The cell suspension was diluted to a 10^6 cells/mL-concentration, and 25 μl of the cell suspension were pipetted onto the underside of a sterile 10-cm tissue culture plate lid. Each lid was loaded with approximately 55 droplets. After loading, the lid was placed onto a tissue culture plate containing 6 mL of sterile PBS (phosphate-buffered saline) and incubated for 48 hours to facilitate spheroid formation. […]

COc1ccc(-c2ccc(-c3cccc(C)c3)c(C)c2)c(CCC(=O)O)c1 [T12, 3-[4″-methoxy-3,2′-dimethyl-(1,1′;4′,1″)terphenyl-2″-yl] propionic acid]
intracellular accumulation of doxorubicin (nuclei containing doxorubicin) ([1]; T12 10 μM last 2 days, doxorubicin 1 μM 3 h before analysis): accumulating doxorubicin inside the cells; also recorded: more abundant in spheroids treated with doxorubicin and T12 than in spheroids treated only with doxorubicin
viability of spheroids with doxorubicin ([1]; T12 10 μM plus doxorubicin 1 μM): sharply reduced the viability
doxorubicin accumulation and viability (stem A549 cells): accumulated doxorubicin reducing viability
collagen IV expression (A7C11): significantly reduced collagen IV expression
collagen IV network formation ([2]; T12 10 μM for the last 2 days of 4-day EMT induction with TGF-β and TNF-α, FIG. 7A): inhibited collagen IV network formation
fibrillary collagen I ([2]; data not shown): sharply reduced fibrillary collagen I
